Results as given in the NIST ThermoML archive (doi:10.1016/j.jct.2014.04.022).
Where “and” joins values, the source holds several entries; their conditions need not be identical. Equal values may be shown once. Numbers after ± are expanded uncertainties.

Legend:
[1] = molar heat capacity at constant pressure
[2] = Molar enthalpy of transition or fusion; conditions: Crystal; DSC

C=C(C)[C@H]1CC=C(C)CC1 [(R)-1-methyl-4-(1-methylethenyl)cyclohexene]
Liquid, Closed cell (Static) method
Conditions	vapor or sublimation pressure
238.2 K	0.001012 ± 0.00011 kPa and 0.001013 ± 0.00011 kPa
243.2 K	0.001755 ± 0.00012 kPa and 0.001756 ± 0.00012 kPa
248.15 K	0.002958 ± 0.00015 kPa and 0.002959 ± 0.00015 kPa and 0.00296 ± 0.00015 kPa
253.15 K	0.00489 ± 0.00021 kPa and 0.004891 ± 0.00021 kPa and 0.004889 ± 0.00021 kPa
258.15 K	0.0079 ± 0.00032 kPa and 0.007901 ± 0.00032 kPa
263.15 K	0.01251 ± 0.0005 kPa and 0.01252 ± 0.0005 kPa
268.15 K	0.01942 ± 0.00061 kPa
273.15 K	0.02957 ± 0.00077 kPa
273.65 K	0.0308 ± 0.00079 kPa and 0.03082 ± 0.00079 kPa
278.15 K	0.04422 ± 0.001 kPa
283.15 K	0.06502 ± 0.0014 kPa and 0.06504 ± 0.0014 kPa and 0.06505 ± 0.0014 kPa
288.15 K	0.09414 ± 0.0019 kPa and 0.09416 ± 0.0019 kPa
293.15 K	0.1343 ± 0.0023 kPa
298.15 K	0.1888 ± 0.003 kPa and 0.1889 ± 0.003 kPa
303.15 K	0.262 ± 0.0039 kPa
308.15 K	0.3589 ± 0.0051 kPa

C[C@H]1CC[C@H]2C[C@@H]1C2(C)C [(-)-trans-pinane]
Liquid, Closed cell (Static) method
Conditions	vapor or sublimation pressure
238.15 K	0.002871 ± 0.00015 kPa and 0.002872 ± 0.00015 kPa
243.15 K	0.004792 ± 0.00021 kPa and 0.004794 ± 0.00021 kPa
248.15 K	0.007832 ± 0.00032 kPa and 0.007836 ± 0.00032 kPa and 0.007837 ± 0.00032 kPa
253.15 K	0.0125 ± 0.0005 kPa
258.15 K	0.01954 ± 0.00062 kPa
263.15 K	0.02999 ± 0.00078 kPa and 0.03 ± 0.00078 kPa
268.15 K	0.04518 ± 0.001 kPa and 0.0452 ± 0.001 kPa
273.15 K	0.06684 ± 0.0014 kPa and 0.06685 ± 0.0014 kPa and 0.06686 ± 0.0014 kPa
273.65 K	0.06947 ± 0.0015 kPa
278.15 K	0.09731 ± 0.0019 kPa and 0.09732 ± 0.0019 kPa
283.15 K	0.1394 ± 0.0024 kPa
288.15 K	0.1968 ± 0.0031 kPa
293.15 K	0.2741 ± 0.004 kPa
298.15 K	0.3766 ± 0.0053 kPa and 0.3767 ± 0.0053 kPa
303.15 K	0.5114 ± 0.007 kPa
308.15 K	0.6862 ± 0.0091 kPa and 0.6863 ± 0.0091 kPa

[1], 101.33 kPa, Liquid, Large sample (1 g) DSC
Conditions	molar heat capacity at constant pressure [J/K/mol]
258.1 K	227.6 ± 3.9
263.2 K	230.3 ± 4
268.3 K	233.4 ± 4.1
273.4 K	236.3 ± 4.1
278.5 K	239.3 ± 4.2
283.6 K	242.3 ± 4.2
288.7 K	245.3 ± 4.2
293.8 K	248.3 ± 4.3
298.9 K	251.3 ± 4.3
304 K	254.3 ± 4.4
309.1 K	257.4 ± 4.5

CC12CCC(CC1)C(C)(C)O2 [1,3,3-trimethyl-2-oxabicyclo[2.2.2]octane]
Conditions	Molar enthalpy of transition or fusion [kcal/mol]
[2]	3.3 ± 0.0956

Conditions	vapor or sublimation pressure
238.2 K, Crystal, Closed cell (Static) method	0.00051 ± 0.00011 kPa and 0.000512 ± 0.00011 kPa
243.2 K, Crystal, Closed cell (Static) method	0.001022 ± 0.00011 kPa and 0.001023 ± 0.00011 kPa
248.15 K, Crystal, Closed cell (Static) method	0.00197 ± 0.00013 kPa and 0.001971 ± 0.00013 kPa and 0.001972 ± 0.00013 kPa
253.15 K, Crystal, Closed cell (Static) method	0.003705 ± 0.00017 kPa and 0.003709 ± 0.00017 kPa and 0.003703 ± 0.00017 kPa
253.15 K, Metastable liquid, Closed cell (Static) method	0.006217 ± 0.00026 kPa and 0.006221 ± 0.00026 kPa and 0.006222 ± 0.00026 kPa
258.15 K, Crystal, Closed cell (Static) method	0.006771 ± 0.00028 kPa and 0.006776 ± 0.00028 kPa and 0.006782 ± 0.00028 kPa
258.15 K, Metastable liquid, Closed cell (Static) method	0.01 ± 0.0004 kPa and 0.01001 ± 0.0004 kPa
263.15 K, Crystal, Closed cell (Static) method	0.01211 ± 0.00048 kPa
263.15 K, Metastable liquid, Closed cell (Static) method	0.01574 ± 0.00056 kPa and 0.01575 ± 0.00056 kPa and 0.01576 ± 0.00056 kPa
268.15 K, Crystal, Closed cell (Static) method	0.02109 ± 0.00064 kPa and 0.0211 ± 0.00064 kPa
268.15 K, Metastable liquid, Closed cell (Static) method	0.02431 ± 0.00069 kPa [middle of 4 runs]
273.15 K, Crystal, Closed cell (Static) method	0.03596 ± 0.00088 kPa and 0.03597 ± 0.00088 kPa
273.65 K, Metastable liquid, Closed cell (Static) method	0.03833 ± 0.00092 kPa and 0.03835 ± 0.00092 kPa and 0.03836 ± 0.00092 kPa
278.15 K, Closed cell (Static) method, Liquid	0.05478 ± 0.0012 kPa and 0.0548 ± 0.0012 kPa
283.15 K, Closed cell (Static) method, Liquid	0.0801 ± 0.0016 kPa and 0.08012 ± 0.0016 kPa
288.15 K, Closed cell (Static) method, Liquid	0.1151 ± 0.0022 kPa and 0.1152 ± 0.0022 kPa
293.15 K, Closed cell (Static) method, Liquid	0.1637 ± 0.0027 kPa
298.15 K, Closed cell (Static) method, Liquid	0.2295 ± 0.0035 kPa and 0.2296 ± 0.0035 kPa
303.15 K, Closed cell (Static) method, Liquid	0.3169 ± 0.0046 kPa and 0.317 ± 0.0046 kPa

Conditions	Normal melting temperature [°C]
Crystal, DTA	1.0 ± 0.5

[1], 101.33 kPa
Conditions	molar heat capacity at constant pressure [J/K/mol]
273.4 K, Metastable liquid, Large sample (1 g) DSC	257.8 ± 4.5
278.5 K, Large sample (1 g) DSC, Liquid	260.2 ± 4.5
283.6 K, Large sample (1 g) DSC, Liquid	262.3 ± 4.6
288.7 K, Large sample (1 g) DSC, Liquid	264.6 ± 4.6
293.8 K, Large sample (1 g) DSC, Liquid	267.3 ± 4.7
298.9 K, Large sample (1 g) DSC, Liquid	270.7 ± 4.7
304 K, Large sample (1 g) DSC, Liquid	273.3 ± 4.7
309.1 K, Large sample (1 g) DSC, Liquid	276.1 ± 4.8
314.2 K, Large sample (1 g) DSC, Liquid	279.3 ± 4.8
319.4 K, Large sample (1 g) DSC, Liquid	281.4 ± 4.9
324.5 K, Large sample (1 g) DSC, Liquid	284.6 ± 4.9
329.6 K, Large sample (1 g) DSC, Liquid	288 ± 5
334.7 K, Large sample (1 g) DSC, Liquid	290.9 ± 5.1
339.8 K, Large sample (1 g) DSC, Liquid	294.2 ± 5.1
344.9 K, Large sample (1 g) DSC, Liquid	297.3 ± 5.2
350 K, Large sample (1 g) DSC, Liquid	301.2 ± 5.2
355.1 K, Large sample (1 g) DSC, Liquid	304.6 ± 5.2
